Experimental data as given in patent US12024552B2 (priority 2012, dated 2024).
Marks after values point to notes of the source that are not given here.

How the values were obtained:
[1] = test system: influenza H1N1 and Streptococcus pneumoniae; parameters: species or system mice; conditions: mouse, in vivo
[2] = test system: Influenza A/Vietnam/1203/2004 (H5N1) virus; parameters: species or system BALB/c mice; conditions: mouse, in vivo

Row | SMILES | rescue from death [1] | Hazard Ratio (95% CI) [2] | Live/Total [2] | Mean Day of Death ± SD [2] | Median Survival [2] | survival, H5N1 [2]
1 | NC(=O)c1ncn([C@@H]2O[C@H](CO)[C@@H](O)[C@H]2O)n1 [Ribavirin, ribavirin] | failed to rescue animals from death | – | – | – | – | –
2 | CCOC(=O)C1=C[C@@H](OC(CC)CC)[C@H](NC(C)=O)[C@@H](N)C1 [Oseltamivir, oseltamivir] | – | 4.8 (1.6-14.3) | 4/7* | 11.3 ± 0.6 | Undefined | 60%
